According to US9260504B2, “N- and C-terminal substituted antagonistic analogs of GH-RH” (University of Miami, priority 2008, dated 2016):

Legend:
Assay type in all cases: in vivo
[1] = system: HT human diffuse mixed B cell lymphoma cell line; test: HT human diffuse mixed B cell lymphoma xenografts in nude mice; settings: 5 μg/day s.c.
Method: The aim of this study was to find out the tumor inhibitor effect of the latest GHRH antagonists (Peptide 11602, Peptide 11604, Peptide 11606, and Peptide 11610) at the dose of 5 μg/day on HT human diffuse mixed B cell lymphoma cell line. Female nude mice were xenografted subcutaneously with approximately 3 mm^3 pieces of HT malignant tumor tissue. When tumors reached the mean volume of approximately 120 mm^3, the animals were randomly assigned into different groups. Tumor volumes and body weight were measured once a week. At the end of the experiment mice were anesthetized and sacrificed. Tumors were carefully excised, weighed and were stored at −80° C. until further investigation. Organs and tumor samples were preserved in 10% formaldehyde.

[2] = system: H460 human non-small cell lung cancer cell line; test: H460 human non-small cell lung cancer xenografts in nude mice (Example XV); settings: 5 μg/day s.c.
Text: The aim of this study was to find out the tumor inhibitor effect of the latest GHRH antagonists (Peptide 11423, Peptide 11602, Peptide 11604, Peptide 11606) on H460 human non-small cell lung cancer cell line. Female nude mice were xenografted subcutaneously with approximately 3 mm^3 pieces of H460 human non-small cell lung cancer malignant tumor tissue. When tumors reached the mean volume of approximately 90 mm^3, the animals was randomly assigned into different groups. Tumor volumes and body weight were measured once a week. At the end of the experiment mice were anesthetized and sacrificed. Tumors were carefully excised, weighed and were stored at −80° C. until further investigation. Organs and tumor samples were preserved in 10% formaldehyde.

[3] = system: Human ovarian cancer SKOV3 cells; test: SKOV3 ovarian cancer xenografts in nude mice; settings: 5 μg/day s.c.
Text: Human ovarian cancer SKOV3 cells growing exponentially were implanted info five female nude mice by subcutaneous (s.c.) injection of 10^7 cells in both flanks. Tumors That resulted after approximately 4 weeks in donor animals were then aseptically dissected and mechanically minced. Three mm^3 pieces of tumor tissue were transplanted subcutaneously into experimental animals with a trocar needle. When tumors reached an appropriate size (approximately 50 mm^3), mice were randomly divided into […]. The first was the control group, the second group was treated with daily s.c. injections of 5 μg P-11313, the third group was treated with daily s.c. injections of 5 μg P-11604, the fourth group was treated with daily s.c. injections of 5 μg P-11610. Tumor volume (length×width×height×0.5236) was measured every week and mean tumor volumes of each group were compared by Student's t-test. The study lasted 49 days. One week after end of treatment, mice were killed under anesthesia, tumors were snap frozen and stored at −70° C.

[4] = system: PC-3 human hormone-independent prostate cancer; test: PC3 androgen-independent prostate cancer xenografts in nude mice (Example XIV)
Method: Male nude mice were implanted s.c. with 3 mm^3 pieces of PC-3 human hormone-independent prostate cancer tissue on both flanks. When tumors reached a volume of approximately 50 mm^3, the mice were divided into 8 experimental groups with 8 to 10 animals in each group and received single daily injections for 28 days as follows: 1. Control (vehicle solution); 2. P-11513 2 μg/day; 3. P-11602 2 μg/day; 4. P-11602 1 μg/day; 5. P-11604 2 μg/day; 6. P-11606 2 μg/day; 7. P-11610 2 μg/day; 8. P-11610 1 μg/day.
Tumor volumes were measured once a week. The experiment was ended on day 28 by sacrificing the mice under Isoflurane anesthesia. Resulting tumors were cleaned, weighed, and snap-frozen until further analyses. Statistical analyses of the measurement results were done by two-tailed t-test, p<0.05 being considered significant.

[(PhAc-Ada)^0-Tyr^1, D-Arg^2, (Phe(F)5)^6, Ala^8, Har^9, Tyr(Me)^10, His^11, Orn^12, Abu^15, His^20, Orn^21, Nle^27, D-Arg^28, Har^29, Agm^30]hGH-RH(1-29) [Peptide 11604]
TUMOR GROWTH (%) ([1]; day 1 (baseline)): 100%
Tumor inhibition (%) ([1]; day 1 (baseline)): 0%
Tumor volume (mm^3) ([1]; day 1 (baseline)): 125.04 mm^3
TUMOR GROWTH (%) ([1]; day 7): 129.89%
Tumor inhibition (%) ([1]; day 7): 57.53%
Tumor volume (mm^3) ([1]; day 7): 165.21 mm^3
TUMOR GROWTH (%) ([1]; day 14): 175.7%
Tumor inhibition (%) ([1]; day 14): 63.61%
Tumor volume (mm^3) ([1]; day 14): 231.44 mm^3
TUMOR GROWTH (%) ([1]; day 21): 271.36%
Tumor inhibition (%) ([1]; day 21): 65.27%
Tumor volume (mm^3) ([1]; day 21): 563.86 mm^3
TUMOR GROWTH (%) ([1]; day 28): 338.41%
Tumor inhibition (%) ([1]; day 28): 62.25%
Tumor volume (mm^3) ([1]; day 28): 818.2 mm^3
TUMOR GROWTH (%) ([2]; day 1 (baseline)): 100.00%
TUMOR GROWTH (%) ([2]; day 7): 341.87%
Tumor inhibition (%) ([2]; day 7): 35.48%
TUMOR GROWTH (%) ([2]; day 14): 609.38%
Tumor inhibition (%) ([2]; day 14): 55.93%
TUMOR GROWTH (%) ([2]; day 21): 1006.40%
Tumor inhibition (%) ([2]; day 21): 59.24%
TUMOR GROWTH (%) ([2]; day 28): 1595.34%
Tumor inhibition (%) ([2]; day 28): 61.08%
TU growth (%) ([3]; day 0 (baseline)): 100%
TU growth (%) ([3]; day 7): 144.55%
TU inhibition (%) ([3]; day 7): 32.57%
TU growth (%) ([3]; day 14): 174.5%
TU inhibition (%) ([3]; day 14): 37.73%
TU growth (%) ([3]; day 21): 179.5%
TU inhibition (%) ([3]; day 21): 66.97%
TU growth (%) ([3]; day 28): 167.5%
TU inhibition (%) ([3]; day 28): 80.12%
TU growth (%) ([3]; day 35): 182.88%
TU inhibition (%) ([3]; day 35): 79.52%
TU growth (%) ([3]; day 42): 397.95%
TU inhibition (%) ([3]; day 42): 67.80%
TU growth (%) ([3]; day 49): 309.96%
TU inhibition (%) ([3]; day 49): 75.63%
TUMOR GROWTH (%) ([4]; 2 μg/day, day 0 (baseline)): 100%
TUMOR GROWTH (%) ([4]; 2 μg/day, day 7): 159.84%
Tumor inhibition (%) ([4]; 2 μg/day, day 7): 51.75%
TUMOR GROWTH (%) ([4]; 2 μg/day, day 14): 199.57%
Tumor inhibition (%) ([4]; 2 μg/day, day 14): 66.23%
TUMOR GROWTH (%) ([4]; 2 μg/day, day 21): 316.88%
Tumor inhibition (%) ([4]; 2 μg/day, day 21): 73.37%
TUMOR GROWTH (%) ([4]; 2 μg/day, day 28): 383.97%
Tumor inhibition (%) ([4]; 2 μg/day, day 28): 79.33%

[(PhAc-Ada)^0-Tyr^1, D-Arg^2, (Phe(F)5)^6, Ala^8, Har^9, Tyr(Me)^10, His^11, Orn^12, Abu^15, His^20, Orn^21, Nle^27, D-Arg^28, Har^29]hGH-RH(1-29)NH2 [Peptide 11602]
TUMOR GROWTH (%) ([1]; day 1 (baseline)): 100%
Tumor inhibition (%) ([1]; day 1 (baseline)): 0%
Tumor volume (mm^3) ([1]; day 1 (baseline)): 194.81 mm^3
TUMOR GROWTH (%) ([1]; day 7): 192.86%
Tumor inhibition (%) ([1]; day 7): 36.94%
Tumor volume (mm^3) ([1]; day 7): 260.13 mm^3
TUMOR GROWTH (%) ([1]; day 14): 281.4%
Tumor inhibition (%) ([1]; day 14): 41.71%
Tumor volume (mm^3) ([1]; day 14): 311.76 mm^3
TUMOR GROWTH (%) ([1]; day 21): 462.45%
Tumor inhibition (%) ([1]; day 21): 40.82%
Tumor volume (mm^3) ([1]; day 21): 332.67 mm^3
TUMOR GROWTH (%) ([1]; day 28): 608.23%
Tumor inhibition (%) ([1]; day 28): 32.15%
Tumor volume (mm^3) ([1]; day 28): 509.24 mm^3
TUMOR GROWTH (%) ([2]; day 1 (baseline)): 100.00%
TUMOR GROWTH (%) ([2]; day 7): 247.89%
Tumor inhibition (%) ([2]; day 7): 53.21%
TUMOR GROWTH (%) ([2]; day 14): 504.42%
Tumor inhibition (%) ([2]; day 14): 63.52%
TUMOR GROWTH (%) ([2]; day 21): 864.16%
Tumor inhibition (%) ([2]; day 21): 65.00%
TUMOR GROWTH (%) ([2]; day 28): 2575.35%
Tumor inhibition (%) ([2]; day 28): 37.18%
TUMOR GROWTH (%) ([4]; 1 μg/day, day 0 (baseline)): 100%
TUMOR GROWTH (%) ([4]; 1 μg/day, day 7): 249.81%
Tumor inhibition (%) ([4]; 1 μg/day, day 7): 24.59%
TUMOR GROWTH (%) ([4]; 1 μg/day, day 14): 295.25%
Tumor inhibition (%) ([4]; 1 μg/day, day 14): 50.04%
TUMOR GROWTH (%) ([4]; 1 μg/day, day 21): 467.74%
Tumor inhibition (%) ([4]; 1 μg/day, day 21): 60.70%
TUMOR GROWTH (%) ([4]; 1 μg/day, day 28): 740.06%
Tumor inhibition (%) ([4]; 1 μg/day, day 28): 60.15%
TUMOR GROWTH (%) ([4]; 2 μg/day, day 0 (baseline)): 100%
TUMOR GROWTH (%) ([4]; 2 μg/day, day 7): 197.77%
Tumor inhibition (%) ([4]; 2 μg/day, day 7): 40.30%
TUMOR GROWTH (%) ([4]; 2 μg/day, day 14): 270.61%
Tumor inhibition (%) ([4]; 2 μg/day, day 14): 54.21%
TUMOR GROWTH (%) ([4]; 2 μg/day, day 21): 449.82%
Tumor inhibition (%) ([4]; 2 μg/day, day 21): 62.20%
TUMOR GROWTH (%) ([4]; 2 μg/day, day 28): 641.31%
Tumor inhibition (%) ([4]; 2 μg/day, day 28): 65.47%

[(PhAc^0-Ada)-Tyr^1, D-Arg^2, (Phe(F)5)^6, (Me-Ala)^8, Har^9, Tyr(Me)^10, His^11, Orn^12, Abu^15, His^20, Orn^21, Nle^27, D-Arg^28, Har^29, Agm^30]hGH-RH(1-29) [Peptide 11606]
TUMOR GROWTH (%) ([1]; day 1 (baseline)): 100%
Tumor inhibition (%) ([1]; day 1 (baseline)): 0%
Tumor volume (mm^3) ([1]; day 1 (baseline)): 128.49 mm^3
TUMOR GROWTH (%) ([1]; day 7): 209.74%
Tumor inhibition (%) ([1]; day 7): 31.38%
Tumor volume (mm^3) ([1]; day 7): 223.02 mm^3
TUMOR GROWTH (%) ([1]; day 14): 352.2%
Tumor inhibition (%) ([1]; day 14): 27.05%
Tumor volume (mm^3) ([1]; day 14): 341.77 mm^3
TUMOR GROWTH (%) ([1]; day 21): 453.71%
Tumor inhibition (%) ([1]; day 21): 41.94%
Tumor volume (mm^3) ([1]; day 21): 510.24 mm^3
TUMOR GROWTH (%) ([1]; day 28): 660.24%
Tumor inhibition (%) ([1]; day 28): 26.35%
Tumor volume (mm^3) ([1]; day 28): 716.13 mm^3
TUMOR GROWTH (%) ([2]; day 1 (baseline)): 100.00%
TUMOR GROWTH (%) ([2]; day 7): 221.26%
Tumor inhibition (%) ([2]; day 7): 58.24%
TUMOR GROWTH (%) ([2]; day 14): 494.68%
Tumor inhibition (%) ([2]; day 14): 64.22%
TUMOR GROWTH (%) ([2]; day 21): 933.19%
Tumor inhibition (%) ([2]; day 21): 62.20%
TUMOR GROWTH (%) ([2]; day 28): 1482.03%
Tumor inhibition (%) ([2]; day 28): 63.85%
TUMOR GROWTH (%) ([4]; 2 μg/day, day 0 (baseline)): 100%
TUMOR GROWTH (%) ([4]; 2 μg/day, day 7): 145.65%
Tumor inhibition (%) ([4]; 2 μg/day, day 7): 56.03%
TUMOR GROWTH (%) ([4]; 2 μg/day, day 14): 307.66%
Tumor inhibition (%) ([4]; 2 μg/day, day 14): 47.94%
TUMOR GROWTH (%) ([4]; 2 μg/day, day 21): 521.69%
Tumor inhibition (%) ([4]; 2 μg/day, day 21): 56.16%
TUMOR GROWTH (%) ([4]; 2 μg/day, day 28): 709.50%
Tumor inhibition (%) ([4]; 2 μg/day, day 28): 61.80%
